From patent US9499551B2, “Substituted pyrrolo[2,3-b]pyridines for treating cancer or inflammatory diseases” (Confluence Life Sciences, Inc., priority 2014, dated 2016)

What follows are compounds tested against T1, TAK1-TAB1 (Homo sapiens, UniProt O43318) (assay: TAK1-TAB1 binding inhibitory potency (LanthaScreen competitive binding assay, kinase tracer-236)). Conditions: 10 nM TAK1-TAB1, 100 nM kinase tracer-236; read-out: TAK1-Tab Inhibition IC50.
T1 sequence (O43318 with tags, fused parts or gaps limits assumed): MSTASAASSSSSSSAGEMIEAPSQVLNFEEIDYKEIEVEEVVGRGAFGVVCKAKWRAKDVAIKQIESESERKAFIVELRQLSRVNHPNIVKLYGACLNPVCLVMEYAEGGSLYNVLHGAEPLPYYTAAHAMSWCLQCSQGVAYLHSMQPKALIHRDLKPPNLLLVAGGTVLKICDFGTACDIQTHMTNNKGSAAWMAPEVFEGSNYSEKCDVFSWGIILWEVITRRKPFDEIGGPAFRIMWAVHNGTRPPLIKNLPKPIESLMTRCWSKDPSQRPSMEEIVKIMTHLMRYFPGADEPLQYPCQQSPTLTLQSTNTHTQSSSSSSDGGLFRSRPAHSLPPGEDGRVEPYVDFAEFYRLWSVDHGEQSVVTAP
Description: TAK1-TAB1 Binding Inhibitory Potency:
The ability of candidate compounds to interact with TAK1-TAB1 is quantitated by a competitive binding assay using the LanthaScreen technology developed by Life Technologies. This assay is based on the binding of a proprietary, Alexa Fluor® 647-labeled, ATP-competitive kinase inhibitor (kinase tracer-236) to the TAK1-TAB1 construct in presence of a europium-conjugated antibody, resulting in a FRET (fluorescence resonance energy transfer) signal. Displacement of the kinase tracer by compound results in a lower emission ratio upon excitation of the europium chelate. Candidate compounds are designed as potential irreversible inhibitors of TAK1-TAB1, capable of ligating to an active site cysteine residue. The time dependent nature of irreversible inhibition is investigated by performing the binding assay with and without a pre-incubation of compound and TAK1-TAB1.
The inhibitory potency of candidate compounds is measured in 20 mM HEPES pH 7.5, 10 mM MgCl2, 0.01% BSA, 0.0005% Tween-20, and 2% DMSO in the presence of 10 nM TAK1-TAB1, 2 nM Eu-anti-his antibody, and 100 nM kinase tracer-236 using a 384-well plate format. Background signal is defined in the absence of TAK1-TAB1 and uninhibited signal is defined in the presence of vehicle (2% DMSO) alone. Compounds were evaluated in an 11 point dose-response ranging from 20 μM to 0.34 nM. The binding assays are performed under two conditions to evaluate time dependence of inhibition. For the pre-incubation assay, TAK1-TAB1 and Eu-anti-his antibody are preincubated with compound or vehicle for two hours prior to the addition of kinase tracer. The non-preincubated assay is run in which TAK1-TAB1 and Eu-anti-his antibody are added to a mixture of compound and kinase tracer. IC50 values of compounds are determined using a 4 parameter logistical fit of emission ratio as a function of the concentration of compound. […]
With `NC(=O)/C=C/c1c[nH]c2ncc(-c3ccc(C(=O)c4cc(F)cc(F)c4)cc3)cc12` [Example 362, (E)-3-(5-(4-(3,5-difluorobenzoyl)phenyl)-1H-pyrrolo[2,3-b]pyridin-3-yl)acrylamide] the IC50 was ≤ 1 µM. `CC(=O)c1ccc(-c2cnc3[nH]cc(/C=C/C(N)=O)c3n2)cc1` [Example 307, (E)-3-(2-(4-acetylphenyl)-5H-pyrrolo[2,3-b]pyrazin-7-yl)acrylamide] was tested, and the IC50 was ≤ 1 µM. `NC(=O)/C=C/c1c[nH]c2ncc(-c3ccc(=O)n(CC4CC4)c3)cc12` [Example 328, (E)-3-(5-(1-(cyclopropyl-methyl)-6-oxo-1,6-dihydropyridin-3-yl)-1H-pyrrolo[2,3-b]pyridin-3-yl)acrylamide] was tested, and the IC50 was ≤ 1 µM. `CCOCCOc1ccc(-c2cnc3[nH]cc(/C=C/C(N)=O)c3c2)cn1` [Example 336, (E)-3-(5-(6-(2-ethoxyethoxy)pyridin-3-yl)-1H-pyrrolo[2,3-b]pyridin-3-yl)acrylamide] was tested, and the IC50 was ≤ 1 µM. In the case of `C/C=C/C(=O)Nc1c[nH]c2ncc(-c3ccccc3)cc12` [Example 235, (E)-N-(5-phenyl-1H-pyrrolo[2,3-b]pyridin-3-yl)but-2-enamide], the IC50 is reported as > 1 µM. For `CC(C)(O)c1ccc(-c2cnc3[nH]cc(/C=C/C(N)=O)c3n2)cn1` [Example 305, (E)-3-(2-(6-(2-hydroxypropan-2-yl)pyridin-3-yl)-5H-pyrrolo[2,3-b]pyrazin-7-yl)acrylamide], the IC50 was ≤ 1 µM. With `N#C/C(=C\c1c[nH]c2ncc(-c3ccc(OCC4CC4)nc3)cc12)C(N)=O` [Example 364, (E)-2-cyano-3-(5-(6-(cyclopropyl-methoxy)pyridin-3-yl)-1H-pyrrolo[2,3-b]pyridin-3-yl)acrylamide] the IC50 was ≤ 1 µM. For `CN1CCC(C(=O)c2ccc(-c3cnc4[nH]cc(/C=C/C(N)=O)c4n3)cc2)CC1` [Example 333, (E)-3-(2-(4-(1-methylpiperidine-4-carbonyl)phenyl)-5H-pyrrolo[2,3-b]pyrazin-7-yl)acrylamide], the IC50 was ≤ 1 µM. For `NC(=O)/C=C/c1c[nH]c2ncc(-c3ccc(C(O)c4nccs4)cc3)cc12` (stereo not shown) [Example 322, (E)-3-(5-(4-(hydroxy(thiazol-2-yl)methyl)phenyl)-1H-pyrrolo[2,3-b]pyridin-3-yl)acrylamide], the IC50 was ≤ 1 µM. With `CC(C)(O)c1cncc(-c2cnc3[nH]cc(/C=C/C(N)=O)c3c2)c1` [Example 311, (E)-3-(5-(5-(2-hydroxypropan-2-yl)pyridin-3-yl)-1H-pyrrolo[2,3-b]pyridin-3-yl)acrylamide] the IC50 was ≤ 1 µM. With `NC(=O)/C=C/c1c[nH]c2ncc(C(=O)c3ccc(F)cc3)cc12` [Example 353, (E)-3-(5-(4-fluorobenzoyl)-1H-pyrrolo[2,3-b]pyridin-3-yl)acrylamide] the IC50 was ≤ 1 µM. In the case of `NC(=O)/C=C/c1c[nH]c2ncc(-c3cc(Cl)cc(C(F)(F)F)c3)cc12` [Example 347, (E)-3-(5-(3-chloro-5-(trifluoromethyl)phenyl)-1H-pyrrolo[2,3-b]pyridin-3-yl)acrylamide], the IC50 is reported as ≤ 1 µM. With `CC(C)Cn1cc(-c2cnc3[nH]cc(/C=C/C(N)=O)c3c2)ccc1=O` [Example 326, (E)-3-(5-(1-isobutyl-6-oxo-1,6-dihydropyridin-3-yl)-1H-pyrrolo[2,3-b]pyridin-3-yl)acrylamide] the IC50 was ≤ 1 µM. In the case of `NC(=O)/C=C/c1c[nH]c2ncc(-c3ccc(C(=O)c4nccs4)cc3)cc12` [Example 324, (E)-3-(5-(4-(thiazole-2-carbonyl)phenyl)-1H-pyrrolo[2,3-b]pyridin-3-yl)acrylamide], the IC50 is reported as ≤ 1 µM. For `CC(C)(O)c1cccc(-c2cnc3[nH]cc(/C=C(\C#N)C(N)=O)c3c2)c1` [Example 361, (E)-2-cyano-3-(5-(3-(2-hydroxypropan-2-yl)phenyl)-1H-pyrrolo[2,3-b]pyridin-3-yl)acrylamide], the IC50 was ≤ 1 µM. For `C=C(C)C(=O)Nc1c[nH]c2ncc(-c3ccccc3)cc12` [Example 233, N-(5-phenyl-1H-pyrrolo[2,3-b]pyridin-3-yl) methacrylamide], the IC50 was > 1 µM. With `CC(C)(O)c1cc(-c2cnc3[nH]cc(/C=C/C(N)=O)c3c2)ccn1` [Example 317, (E)-3-(5-(2-(2-hydroxypropan-2-yl)pyridin-4-yl)-1H-pyrrolo[2,3-b]pyridin-3-yl)acrylamide] the IC50 was ≤ 1 µM. With `CC(=O)c1cncc(-c2cnc3[nH]cc(/C=C/C(N)=O)c3c2)c1` [Example 304, (E)-3-(5-(5-acetylpyridin-3-yl)-1H-pyrrolo[2,3-b]pyridin-3-yl)acrylamide] the IC50 was ≤ 1 µM. `NC(=O)/C=C/c1c[nH]c2ncc(-c3cc(C(F)(F)F)cc(C(F)(F)F)c3)nc12` [Example 316, (E)-3-(2-(3,5-bis(trifluoromethyl)phenyl)-5H-pyrrolo[2,3-b]pyrazin-7-yl)acrylamide] was tested, and the IC50 was ≤ 1 µM. In the case of `NC(=O)/C=C/c1c[nH]c2ncc(N3CCN(C(=O)Oc4ccccc4)CC3)cc12` [Example 302, (E)-phenyl 4-(3-(3-amino-3-oxoprop-1-en-1-yl)-1H-pyrrolo[2,3-b]pyridin-5-yl)piperazine-1-carboxylate], the IC50 is reported as ≤ 1 µM. `CC(=O)c1cccc(N2CCN(c3cnc4[nH]cc(/C=C/C(N)=O)c4c3)CC2)c1` [Example 346, (E)-3-(5-(4-(3-acetylphenyl)piperazin-1-yl)-1H-pyrrolo[2,3-b]pyridin-3-yl)acrylamide] was tested, and the IC50 was ≤ 1 µM. In the case of `COc1cc(-c2cnc3[nH]cc(/C=C/C(N)=O)c3c2)cc(C(F)(F)F)c1` [Example 349, (E)-3-(5-(3-methoxy-5-(trifluoromethyl)phenyl)-1H-pyrrolo[2,3-b]pyridin-3-yl)acrylamide], the IC50 is reported as ≤ 1 µM. With `CC(C)c1ccc(C(=O)N2CCN(c3cnc4[nH]cc(/C=C/C(N)=O)c4c3)CC2)cc1` [Example 335, (E)-3-(5-(4-(4-isopropylbenzoyl)piperazin-1-yl)-1H-pyrrolo[2,3-b]pyridin-3-yl)acrylamide] the IC50 was ≤ 1 µM. In the case of `CC(=O)c1ccc(-c2cnc3[nH]cc(/C=C/C(N)=O)c3n2)cc1C` [Example 340, (E)-3-(2-(4-acetyl-3-methylphenyl)-5H-pyrrolo[2,3-b]pyrazin-7-yl)acrylamide], the IC50 is reported as ≤ 1 µM. `C=CC(=O)Nc1c[nH]c2ncc(-c3ccccc3)cc12` [Example 236, N-(5-phenyl-1H-pyrrolo[2,3-b]pyridin-3-yl)acrylamide] was tested, and the IC50 was > 1 µM. `CCOCCn1cc(-c2cnc3[nH]cc(/C=C/C(N)=O)c3c2)ccc1=O` [Example 337, (E)-3-(5-(1-(2-ethoxyethyl)-6-oxo-1,6-dihydropyridin-3-yl)-1H-pyrrolo[2,3-b]pyridin-3-yl)acrylamide] was tested, and the IC50 was ≤ 1 µM. With `CN(C)C(=O)c1cnc2[nH]cc(/C=C/C(N)=O)c2c1` [Example 355, (E)-3-(3-amino-3-oxoprop-1-en-1-yl)-N,N-dimethyl-1H-pyrrolo[2,3-b]pyridine-5-carboxamide] the IC50 was ≤ 1 µM. `CN1CCC(C(=O)c2ccc(-c3cnc4[nH]cc(/C=C/C(N)=O)c4c3)cc2)CC1` [Example 334, (E)-3-(5-(4-(1-methylpiperidine-4-carbonyl)phenyl)-1H-pyrrolo[2,3-b]pyridin-3-yl)acrylamide] was tested, and the IC50 was ≤ 1 µM. With `CC#CC(=O)Nc1c[nH]c2ncc(-c3ccccc3)cc12` [Example 237, N-(5-phenyl-1H-pyrrolo[2,3-b]pyridin-3-yl)but-2-ynamide] the IC50 was ≤ 1 µM. In the case of `NC(=O)/C=C/c1c[nH]c2ncc(-c3ccc(N4CCCCC4)nc3)nc12` [Example 320, (E)-3-(2-(6-(piperidin-1-yl)pyridin-3-yl)-5H-pyrrolo[2,3-b]pyrazin-7-yl)acrylamide], the IC50 is reported as ≤ 1 µM. For `NC(=O)/C=C\c1c[nH]c2ncc(-c3ccc(C(O)c4nccs4)cc3)cc12` (stereo not shown) [Example 323, (Z)-3-(5-(4-(hydroxy(thiazol-2-yl)methyl)phenyl)-1H-pyrrolo[2,3-b]pyridin-3-yl)acrylamide], the IC50 was ≤ 1 µM. In the case of `CC(=O)c1ccc(-c2cnc3[nH]cc(/C=C/C(N)=O)c3c2)cc1C` [Example 339, (E)-3-(5-(4-acetyl-3-methylphenyl)-1H-pyrrolo[2,3-b]pyridin-3-yl)acrylamide], the IC50 is reported as ≤ 1 µM. In the case of `CC(=O)c1ccc(-c2cc3c(/C=C/C(N)=O)c[nH]c3nc2C)cc1` [Example 331, (E)-3-(5-(4-acetylphenyl)-6-methyl-1H-pyrrolo[2,3-b]pyridin-3-yl)acrylamide], the IC50 is reported as ≤ 1 µM. In the case of `NC(=O)/C=C/c1c[nH]c2ncc(N3CC(NC(=O)C4CCCC4)C3)cc12` [Example 321, (E)-N-(1-(3-(3-amino-3-oxoprop-1-en-1-yl)-1H-pyrrolo[2,3-b]pyridin-5-yl)azetidin-3-yl) cyclopentane-carboxamide], the IC50 is reported as ≤ 1 µM.
